Assay results from US10464947B2 (Incyte Corporation, priority 2013, dated 2019).

Test system: KMS.12.BM cells
Assay: KMS.12.BM Cell Viability Assay (Example B1)
Type: cell-based, human
Settings: Homo sapiens, 72 h, 3 days, Cell Titer-GLO, read-out: KMS cellular IC50
Procedure: KMS.12.BM cell line (human myeloma) was purchased from JCRB (Osaka, Japan) and maintained in RPMI with 10% FBS culture medium. To measure the cytotoxic activity of the compounds through ATP quantitation, the KMS.12.BM cells are plated in the RPMI culture medium at 5000 cells/well/per 100 μL into a 96-well polystyrene clear black tissue culture plate (Greiner-bio-one through VWR, NJ), in the presence or absence of a concentration range of test compounds. After 3 days, […] Cell Titer-GLO Luminescent (Promega, Madison, Wis.) cell culture agent is added to each well for 10 min. at room temperature to stabilize the luminescent signal. This determines the number of viable cells in culture based on quantitation of the ATP present, which signals the presence of metabolically active cells.

| SMILES | IC50 |
| --- | --- |
| CN[C@H]1CCN(c2nc3ccc(-c4c(C)noc4C)c4c3n2[C@@H](c2ccccn2)CO4)C1 [Example 181B, (3S)-1-[(4S)-7-(3,5-dimethylisoxazol-4-yl)-4-pyridin-2-yl-4,5-dihydroimidazo[1,5,4-de][1,4]benzoxazin-2-yl]-N-methylpyrrolidin-3-amine] | < 1000 nM |
| Cc1noc(C)c1-c1ccc2nc(N3CC[C@@H](NC(=O)C4CCC4)C3)n3c2c1OC[C@@H]3c1ccccn1 [Example 210, N-{(3R)-1-[(4S)-7-(3,5-dimethylisoxazol-4-yl)-4-pyridin-2-yl-4,5-dihydroimidazo[1,5,4-de][1,4]benzoxazin-2-yl]pyrrolidin-3-yl}cyclobutanecarboxamide] | < 1000 nM |
| CCC(=O)NC1CN(c2nc3ccc(-c4c(C)noc4C)c4c3n2[C@@H](c2ccccn2)CO4)C1 [Example 232, N-{1-[(4S)-7-(3,5-dimethylisoxazol-4-yl)-4-pyridin-2-yl-4,5-dihydroimidazo[1,5,4-de][1,4]benzoxazin-2-yl]azetidin-3-yl}propanamide] | < 1000 nM |
| COc1ccc(CNCc2cc(-c3c(C)noc3C)c3c4c2[nH]c(=O)n4C(c2ccccn2)CO3)cc1 (centres unmarked) [Example 263, 7-(3,5-dimethylisoxazol-4-yl)-9-{[(4-methoxybenzyl)amino]methyl}-4-pyridin-2-yl-4,5-dihydroimidazo[1,5,4-de][1,4]benzoxazin-2(1H)-one] | < 1000 nM |
| Cc1noc(C)c1-c1ccc2nc(N3CC[C@@H](NC(=O)OC(C)(C)C)C3)n3c2c1OC[C@@H]3c1ccccn1 [Example 182A, tert-butyl {(3R)-1-[(4S)-7-(3,5-dimethylisoxazol-4-yl)-4-pyridin-2-yl-4,5-dihydroimidazo[1,5,4-de][1,4]benzoxazin-2-yl]pyrrolidin-3-yl}carbamate] | < 1000 nM |
| Cc1noc(C)c1-c1ccc2nc(N3CCC(C#N)CC3)n3c2c1OC[C@@H]3c1ccccn1 [Example 175, 1-[(4S)-7-(3,5-dimethylisoxazol-4-yl)-4-pyridin-2-yl-4,5-dihydroimidazo[1,5,4-de][1,4]benzoxazin-2-yl]piperidine-4-carbonitrile] | < 1000 nM |
| Cc1noc(C)c1-c1ccc2nc(N3CC[C@@H](C(=O)NC4CC4)C3)n3c2c1OC[C@@H]3c1ccccn1 [Example 251, (3R)-N-cyclopropyl-1-[(4S)-7-(3,5-dimethylisoxazol-4-yl)-4-pyridin-2-yl-4,5-dihydroimidazo[1,5,4-de][1,4]benzoxazin-2-yl]pyrrolidine-3-carboxamide] | < 1000 nM |
| Cc1noc(C)c1-c1ccc2[nH]c(=O)n3c2c1OCC3c1ccccc1 (centres unmarked) [Example 1, 7-(3,5-Dimethylisoxazol-4-yl)-4-phenyl-4,5-dihydroimidazo[1,5,4-de][1,4]benzoxazin-2(1H)-one] | < 1000 nM |
| COCCN1CCN(c2nc3ccc(-c4c(C)noc4C)c4c3n2[C@@H](c2ccccn2)CO4)CC1 [Example 184, (4S)-7-(3,5-dimethylisoxazol-4-yl)-2-[4-(2-methoxyethyl)piperazin-1-yl]-4-pyridin-2-yl-4,5-dihydroimidazo[1,5,4-de][1,4]benzoxazine] | < 1000 nM |
| Cc1noc(C)c1-c1ccc2nc(C(C)O)n3c2c1OC[C@@H]3c1ccccn1 (stereo partly drawn) [Example 90, 1-[(4S)-7-(3,5-Dimethylisoxazol-4-yl)-4-pyridin-2-yl-4,5-dihydroimidazo[1,5,4-de][1,4]benzoxazin-2-yl]ethanol] | < 1000 nM |
| CCNC(=O)COc1ccccc1C1COc2c(-c3c(C)noc3C)ccc3[nH]c(=O)n1c23 (centres unmarked) [Example 22, 2-{2-[7-(3,5-Dimethylisoxazol-4-yl)-2-oxo-1,2,4,5-tetrahydroimidazo[1,5,4-de][1,4]benzoxazin-4-yl]phenoxy}-N-ethylacetamide] | < 1000 nM |
| Cc1noc(C)c1-c1ccc2nc(N3CC[C@@H](NC(=O)C(C)C)C3)n3c2c1OC[C@@H]3c1ccccn1 [Example 209, N-{(3R)-1-[(4S)-7-(3,5-dimethylisoxazol-4-yl)-4-pyridin-2-yl-4,5-dihydroimidazo[1,5,4-de][1,4]benzoxazin-2-yl]pyrrolidin-3-yl}-2-methylpropanamide] | < 1000 nM |
| Cc1noc(C)c1-c1cc(-c2cn[nH]c2)c2[nH]c(=O)n3c2c1OCC3c1ccccn1 (centres unmarked) [Example 256, 7-(3,5-dimethylisoxazol-4-yl)-9-(1H-pyrazol-4-yl)-4-pyridin-2-yl-4,5-dihydroimidazo[1,5,4-de][1,4]benzoxazin-2(1H)-one] | < 1000 nM |
| Cc1noc(C)c1-c1ccc2nc(N3CCN(C(C)C)CC3)n3c2c1OC[C@@H]3c1ccccn1 [Example 174, (4S)-7-(3,5-dimethylisoxazol-4-yl)-2-(4-isopropylpiperazin-1-yl)-4-pyridin-2-yl-4,5-dihydroimidazo[1,5,4-de][1,4]benzoxazine] | < 1000 nM |
| Cc1noc(C)c1-c1cc(-c2cn[nH]c2C)c2[nH]c(=O)n3c2c1OCC3c1ccccn1 (centres unmarked) [Example 257, 7-(3,5-dimethylisoxazol-4-yl)-9-(3-methyl-1H-pyrazol-4-yl)-4-pyridin-2-yl-4,5-dihydroimidazo[1,5,4-de][1,4]benzoxazin-2(1H)-one] | < 1000 nM |
| Cc1noc(C)c1-c1ccc2[nH]c(=O)n3c2c1OCC3C1CCCO1 (single isomer, unassigned) [Example 18A, 7-(3,5-Dimethylisoxazol-4-yl)-4-(tetrahydrofuran-2-yl)-4,5-dihydroimidazo[1,5,4-de][1,4]benzoxazin-2(1H)-one] | < 1000 nM |
| COCC(=O)N(C)[C@@H]1CCN(c2nc3ccc(-c4c(C)noc4C)c4c3n2[C@@H](c2ccccn2)CO4)C1 [Example 221, N-{(3R)-1-[(4S)-7-(3,5-dimethylisoxazol-4-yl)-4-pyridin-2-yl-4,5-dihydroimidazo[1,5,4-de][1,4]benzoxazin-2-yl]pyrrolidin-3-yl}-2-methoxy-N-methylacetamide] | < 1000 nM |
| Cc1noc(C)c1-c1ccc2nc(C3CCNCC3)n3c2c1OC[C@@H]3c1ccccn1 [Example 103] | < 1000 nM |
| Cc1noc(C)c1-c1ccc2ncn3c2c1OC[C@@H]3c1ccccn1 [Example 92, (4S)-7-(3,5-Dimethylisoxazol-4-yl)-4-pyridin-2-yl-4,5-dihydroimidazo[1,5,4-de][1,4]benzoxazine] | < 1000 nM |
| Cc1noc(C)c1-c1ccc2nc(N3CCC3)n3c2c1OC[C@@H]3c1ccccn1 [Example 164, (4S)-2-azetidin-1-yl-7-(3,5-dimethylisoxazol-4-yl)-4-pyridin-2-yl-4,5-dihydroimidazo[1,5,4-de][1,4]benzoxazine] | < 1000 nM |
| CNC(=O)C1CCN(c2nc3ccc(-c4c(C)noc4C)c4c3n2[C@@H](c2ccccn2)CO4)CC1 [Example 189, 1-[(4S)-7-(3,5-dimethylisoxazol-4-yl)-4-pyridin-2-yl-4,5-dihydroimidazo[1,5,4-de][1,4]benzoxazin-2-yl]-N-methylpiperidine-4-carboxamide] | < 1000 nM |
| Cc1noc(C)c1-c1ccc2nc(N3CCN4CCC[C@H]4C3)n3c2c1OC[C@@H]3c1ccccn1 [Example 193A, (4S)-7-(3,5-dimethylisoxazol-4-yl)-2-[(8aS)-hexahydropyrrolo[1,2-a]pyrazin-2(1H)-yl]-4-pyridin-2-yl-4,5-dihydroimidazo[1,5,4-de][1,4]benzoxazine] | < 1000 nM |
| Cc1noc(C)c1-c1ccc2[nH]c(=O)n3c2c1OCC3c1ccc(F)cc1 (centres unmarked) [Example 49, 7-(3,5-Dimethylisoxazol-4-yl)-4-(4-fluorophenyl)-4,5-dihydroimidazo[1,5,4-de][1,4]benzoxazin-2(1H)-one] | < 1000 nM |
| CC(=O)N[C@H]1CCN(c2nc3ccc(-c4c(C)noc4C)c4c3n2[C@@H](c2ccccn2)CO4)C1 [Example 201B, N-{(3S)-1-[(4S)-7-(3,5-dimethylisoxazol-4-yl)-4-pyridin-2-yl-4,5-dihydroimidazo[1,5,4-de][1,4]benzoxazin-2-yl]pyrrolidin-3-yl}acetamide] | < 1000 nM |
| Cc1noc(C)c1-c1ccc2[nH]c(=O)n3c2c1CCC3c1ccccc1 (centres unmarked) [Example 120, 7-(3,5-Dimethylisoxazol-4-yl)-4-phenyl-5,6-dihydro-4H-imidazo[4,5,1-ij]quinolin-2(1H)-one] | < 1000 nM |
| Cc1noc(C)c1-c1ccc2nc(N3CC(NC(=O)C(C)C)C3)n3c2c1OC[C@@H]3c1ccccn1 [Example 233, N-{1-[(4S)-7-(3,5-dimethylisoxazol-4-yl)-4-pyridin-2-yl-4,5-dihydroimidazo[1,5,4-de][1,4]benzoxazin-2-yl]azetidin-3-yl}-2-methylpropanamide] | < 1000 nM |

Same assay, conditions: Homo sapiens, KMS-12-BM, 72 h, 3 days, Cell Titer-GLO, read-out: KMS cellular IC50

| SMILES | IC50 |
| --- | --- |
| Cc1noc(C)c1-c1ccc2[nH]c(=O)n3c2c1OC(C(=O)N(C)C)C3c1ccccc1 (single isomer, unassigned) [Example 47B, 7-(3,5-Dimethylisoxazol-4-yl)-N,N-dimethyl-2-oxo-4-phenyl-1,2,4,5-tetrahydroimidazo[1,5,4-de][1,4]benzoxazine-5-carboxamide] | 1000 to 10000 nM |
| Cc1noc(C)c1-c1ccc2[nH]c(=O)n3c2c1OCC3c1cccnc1C#N (racemic) [Example 126, 3-[7-(3,5-Dimethylisoxazol-4-yl)-2-oxo-1,2,4,5-tetrahydroimidazo[1,5,4-de][1,4]benzoxazin-4-yl]pyridine-2-carbonitrile] | < 1000 nM |
| Cc1noc(C)c1-c1cc(Cl)c2[nH]c(=O)n3c2c1OCC3c1ccccn1 (single isomer, unassigned) [Example 266A, 9-chloro-7-(3,5-dimethylisoxazol-4-yl)-4-pyridin-2-yl-4,5-dihydroimidazo[1,5,4-de][1,4]benzoxazin-2(1H)-one] | < 1000 nM |
